Experimental data from ChEMBL document CHEMBL4507292 (2021).

How the values were obtained:
[1] = molecular target: GABA-A receptor; anion channel (Rattus norvegicus) (UniProt O09028+P15431+P18506+P18508+P19969+P20236+P23574+P23576+P28471+P28473+P30191+P62813+P63079+P63138+Q91ZM7+Q9ES14); experiment: Inhibition of GABAA, Muscimol, Central at 10 µM in the Eurofins-Panlabs radioligand binding assay (Eurofins_assay_226500); type: protein-complex assay; settings: Compound concentration 10.0 uM
[2] = molecular target: voltage-gated sodium channel, site 2 (Rattus norvegicus, UniProt F1LQQ7+O08562+O88420+O88457+P04774+P04775+P08104+P15389+P15390+Q62968); experiment: Inhibition of Sodium Channel, Site 2 at 10 µM in the Eurofins-Panlabs radioligand binding assay (Eurofins_assay_279510); type: protein assay; design: ligand concentration 5 nM, non-specific ligand with concentration 100 µM Veratridine, incubation time 60 min, incubation temperature 37 °C; settings: male, Wistar, rat whole brain (except cerebellum) membranes, probe [3H] Batrachotoxinin, 5 nM, compound concentration 10 uM
[3] = molecular target: T1, Prostaglandin G/H synthase 2 (Homo sapiens) (UniProt P35354); experiment: (§1) Inhibition of Cyclooxygenase COX-2 at compound concentration of 10.0 uM in the Eurofins-Panlabs enzyme assay (Eurofins_assay_118010); design: substrate with concentration 0.3 uM Arachidonic acid, incubation time 15 min, incubation temperature 37 C
T1 sequence (whole entry): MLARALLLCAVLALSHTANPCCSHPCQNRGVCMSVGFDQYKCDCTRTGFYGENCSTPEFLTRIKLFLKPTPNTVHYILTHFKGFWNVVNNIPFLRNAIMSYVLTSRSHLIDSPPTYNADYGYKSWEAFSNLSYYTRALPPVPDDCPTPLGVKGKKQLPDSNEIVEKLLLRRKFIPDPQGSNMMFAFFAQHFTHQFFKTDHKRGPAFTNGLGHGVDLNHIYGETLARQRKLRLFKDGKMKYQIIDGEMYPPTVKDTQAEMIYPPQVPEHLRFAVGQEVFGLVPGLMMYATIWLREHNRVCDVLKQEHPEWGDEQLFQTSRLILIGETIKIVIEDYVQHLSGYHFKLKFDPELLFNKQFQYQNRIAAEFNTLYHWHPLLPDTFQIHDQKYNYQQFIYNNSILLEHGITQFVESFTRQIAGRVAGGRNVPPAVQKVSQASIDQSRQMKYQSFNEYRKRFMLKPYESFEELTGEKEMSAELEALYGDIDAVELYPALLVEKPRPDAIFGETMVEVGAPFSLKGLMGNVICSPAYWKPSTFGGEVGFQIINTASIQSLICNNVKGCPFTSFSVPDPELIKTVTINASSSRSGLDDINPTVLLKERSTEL

[4] = molecular target: Prostaglandin G/H synthase 2 (Homo sapiens, UniProt P35354); experiment: as §1; design: substrate with concentration 0.3 uM Arachidonic acid, incubation time 15 min, incubation temperature 37 C
[5] = molecular target: monoamine oxidase A (MAO-A) (Homo sapiens, UniProt P21397); experiment: Inhibition of Monoamine Oxidase MAO-A at compound concentration of 10.0 uM in the Eurofins-Panlabs enzyme assay (Eurofins_assay_140010); design: substrate with concentration 50 uM Kynuramine, incubation time 60 min, incubation temperature 37 C; settings: human recombinant MAO-A expressed in insect Hi5 cells, probe kynuramine, 50 uM, compound concentration 10 uM
[6] = molecular target: T2, Muscarinic acetylcholine receptor M5 (Homo sapiens) (UniProt P08912); experiment: Inhibition of Muscarinic M5 at 10 µM in the Eurofins-Panlabs radioligand binding assay (Eurofins_assay_253010); design: ligand concentration 0.8 nM; settings: Compound concentration 10.0 uM
T2 sequence (whole entry): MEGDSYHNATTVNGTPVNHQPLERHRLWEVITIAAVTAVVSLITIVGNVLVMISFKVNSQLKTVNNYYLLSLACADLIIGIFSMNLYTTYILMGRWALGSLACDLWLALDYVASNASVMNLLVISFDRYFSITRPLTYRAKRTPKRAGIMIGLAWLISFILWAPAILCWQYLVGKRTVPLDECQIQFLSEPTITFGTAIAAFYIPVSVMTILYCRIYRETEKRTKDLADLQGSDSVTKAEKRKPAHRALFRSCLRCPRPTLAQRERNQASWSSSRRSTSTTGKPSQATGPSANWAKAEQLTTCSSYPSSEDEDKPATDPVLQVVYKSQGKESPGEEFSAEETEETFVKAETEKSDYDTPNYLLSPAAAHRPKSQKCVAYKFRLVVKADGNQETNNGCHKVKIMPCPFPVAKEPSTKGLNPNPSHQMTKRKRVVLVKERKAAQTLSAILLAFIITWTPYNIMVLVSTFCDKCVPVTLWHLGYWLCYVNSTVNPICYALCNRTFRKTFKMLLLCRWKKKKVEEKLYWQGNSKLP

[7] = molecular target: Substance-P receptor (Homo sapiens) (UniProt P25103); experiment: Tachykinin NK1 Eurofins-Panlabs radioligand binding assay; settings: Compound concentration 10.0 uM
[8] = molecular target: Histamine H4 receptor (Homo sapiens) (UniProt Q9H3N8); experiment: Histamine H4 Eurofins-Panlabs radioligand binding assay; settings: Compound concentration 10.0 uM
[9] = molecular target: Neprilysin (Homo sapiens) (UniProt P08473); experiment: Peptidase, Metalloproteinase, Neutral Endopeptidase Eurofins-Panlabs enzyme assay; settings: Compound concentration 10.0 uM
[10] = molecular target: Protein kinase C alpha type (Homo sapiens) (UniProt P17252); experiment: Inhibition of Protein Serine/Threonine Kinase, PRKCA (PKCα) at 10 µM in the Eurofins-Panlabs enzyme assay (Eurofins_assay_180010); design: substrate with concentration Histone, incubation time 10 min, incubation temperature 25 °C; settings: Compound concentration […]
[11] = molecular target: C-C chemokine receptor type 1 (Homo sapiens) (UniProt P32246); experiment: Chemokine CCR1 Eurofins-Panlabs radioligand binding assay; settings: Compound concentration 10.0 uM
[12] = molecular target: D(1B) dopamine receptor (Homo sapiens, UniProt P21918); experiment: Dopamine D5 Eurofins-Panlabs radioligand binding assay; settings: concentration not given here
[13] = molecular target: Oxytocin receptor (Homo sapiens) (UniProt P30559); experiment: Oxytocin Eurofins-Panlabs radioligand binding assay; settings: Compound concentration 10.0 uM
[14] = molecular target: Prostaglandin E2 receptor EP1 subtype (Homo sapiens) (UniProt P34995); experiment: Prostanoid EP1 Eurofins-Panlabs radioligand binding assay; settings: Compound concentration 10.0 uM
[15] = molecular target: Somatostatin receptor type 4 (Homo sapiens, UniProt P31391); experiment: Somatostatin sst4 Eurofins-Panlabs radioligand binding assay; design: ligand concentration 0.1 nM, non-specific ligand with concentration 1 µM Somatostatin-14, incubation time 45 min, incubation temperature 25 °C
[16] = molecular target: Vasopressin V2 receptor (Homo sapiens) (UniProt P30518); experiment: Vasopressin V2 Eurofins-Panlabs radioligand binding assay; design: ligand concentration 0.5 nM; settings: Compound concentration 10.0 uM
[17] = molecular target: Estrogen receptor (Homo sapiens) (UniProt P03372); settings: Compound concentration 10.0 uM
[18] = molecular target: Histamine H1 receptor (Homo sapiens) (UniProt P35367); settings: Compound concentration 10.0 uM
[19] = molecular target: Histamine H2 receptor (Homo sapiens) (UniProt P25021)
[20] = species: Rattus norvegicus; settings: Compound concentration 10.0 uM
[21] = molecular target: Beta-3 adrenergic receptor (Homo sapiens, UniProt P13945)
[22] = molecular target: Insulin receptor (Homo sapiens, UniProt P06213); settings: Rattus norvegicus; Compound concentration 10.0 uM

Chain of Beta-3 adrenergic receptor (P13945 whole entry, looked up): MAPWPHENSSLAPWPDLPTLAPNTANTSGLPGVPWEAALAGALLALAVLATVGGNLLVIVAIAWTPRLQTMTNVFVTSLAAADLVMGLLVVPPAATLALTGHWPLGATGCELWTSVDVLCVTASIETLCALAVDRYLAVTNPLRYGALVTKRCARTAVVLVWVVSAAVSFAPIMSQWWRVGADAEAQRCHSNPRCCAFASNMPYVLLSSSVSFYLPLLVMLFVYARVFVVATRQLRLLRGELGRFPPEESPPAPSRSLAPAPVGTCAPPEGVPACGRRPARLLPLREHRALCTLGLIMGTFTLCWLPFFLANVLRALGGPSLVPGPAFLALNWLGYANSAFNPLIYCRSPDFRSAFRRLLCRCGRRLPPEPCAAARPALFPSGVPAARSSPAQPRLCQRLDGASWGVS
Chain of Histamine H2 receptor (Homo sapiens) (P25021 whole entry): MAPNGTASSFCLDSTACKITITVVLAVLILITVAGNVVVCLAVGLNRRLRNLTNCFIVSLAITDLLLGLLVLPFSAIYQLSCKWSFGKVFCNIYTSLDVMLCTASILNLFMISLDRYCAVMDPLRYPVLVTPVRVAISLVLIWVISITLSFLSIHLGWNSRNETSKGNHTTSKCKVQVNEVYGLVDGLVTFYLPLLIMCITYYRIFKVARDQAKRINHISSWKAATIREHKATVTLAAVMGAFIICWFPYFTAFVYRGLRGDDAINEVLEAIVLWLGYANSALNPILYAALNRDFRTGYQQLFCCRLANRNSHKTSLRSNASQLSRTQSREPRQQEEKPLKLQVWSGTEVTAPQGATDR
Chain of Somatostatin receptor type 4 (P31391 whole entry): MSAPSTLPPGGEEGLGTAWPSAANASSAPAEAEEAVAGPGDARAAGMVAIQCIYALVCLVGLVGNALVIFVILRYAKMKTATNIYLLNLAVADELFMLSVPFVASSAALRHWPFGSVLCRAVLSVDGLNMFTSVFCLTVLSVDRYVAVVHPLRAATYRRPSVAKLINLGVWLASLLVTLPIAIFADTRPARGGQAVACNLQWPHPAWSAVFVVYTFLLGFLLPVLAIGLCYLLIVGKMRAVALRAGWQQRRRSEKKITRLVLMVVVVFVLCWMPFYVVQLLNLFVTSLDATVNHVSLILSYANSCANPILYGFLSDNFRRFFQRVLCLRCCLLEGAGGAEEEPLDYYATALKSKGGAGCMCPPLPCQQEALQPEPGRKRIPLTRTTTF
Chain of D(1B) dopamine receptor (P21918 whole entry): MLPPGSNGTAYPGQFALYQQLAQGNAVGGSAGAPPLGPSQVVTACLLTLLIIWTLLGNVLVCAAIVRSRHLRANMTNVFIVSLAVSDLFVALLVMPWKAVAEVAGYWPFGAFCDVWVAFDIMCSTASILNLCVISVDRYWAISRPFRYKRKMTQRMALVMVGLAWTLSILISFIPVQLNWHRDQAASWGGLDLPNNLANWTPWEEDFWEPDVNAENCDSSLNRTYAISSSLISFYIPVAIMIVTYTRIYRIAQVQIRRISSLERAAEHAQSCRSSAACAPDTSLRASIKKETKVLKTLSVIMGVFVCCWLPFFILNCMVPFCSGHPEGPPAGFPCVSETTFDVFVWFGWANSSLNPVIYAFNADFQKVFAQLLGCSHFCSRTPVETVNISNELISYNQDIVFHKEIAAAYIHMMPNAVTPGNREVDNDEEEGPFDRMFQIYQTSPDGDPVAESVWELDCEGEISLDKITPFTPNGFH
Chain of monoamine oxidase A (MAO-A) (P21397 whole entry): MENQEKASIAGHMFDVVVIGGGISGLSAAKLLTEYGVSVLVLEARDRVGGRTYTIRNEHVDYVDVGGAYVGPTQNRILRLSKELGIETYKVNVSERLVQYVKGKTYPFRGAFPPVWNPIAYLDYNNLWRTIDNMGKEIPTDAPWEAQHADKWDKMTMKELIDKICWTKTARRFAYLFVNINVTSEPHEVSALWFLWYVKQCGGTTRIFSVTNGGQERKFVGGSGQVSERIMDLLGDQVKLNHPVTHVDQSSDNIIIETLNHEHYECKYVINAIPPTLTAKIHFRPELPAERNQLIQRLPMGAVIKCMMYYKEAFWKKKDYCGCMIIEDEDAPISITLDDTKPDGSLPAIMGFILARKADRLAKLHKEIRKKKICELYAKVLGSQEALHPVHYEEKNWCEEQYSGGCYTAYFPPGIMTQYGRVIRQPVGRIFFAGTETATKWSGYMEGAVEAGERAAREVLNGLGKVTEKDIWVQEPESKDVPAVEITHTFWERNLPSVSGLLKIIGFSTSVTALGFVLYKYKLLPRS
Chain of Oxytocin receptor (Homo sapiens) (P30559 whole entry): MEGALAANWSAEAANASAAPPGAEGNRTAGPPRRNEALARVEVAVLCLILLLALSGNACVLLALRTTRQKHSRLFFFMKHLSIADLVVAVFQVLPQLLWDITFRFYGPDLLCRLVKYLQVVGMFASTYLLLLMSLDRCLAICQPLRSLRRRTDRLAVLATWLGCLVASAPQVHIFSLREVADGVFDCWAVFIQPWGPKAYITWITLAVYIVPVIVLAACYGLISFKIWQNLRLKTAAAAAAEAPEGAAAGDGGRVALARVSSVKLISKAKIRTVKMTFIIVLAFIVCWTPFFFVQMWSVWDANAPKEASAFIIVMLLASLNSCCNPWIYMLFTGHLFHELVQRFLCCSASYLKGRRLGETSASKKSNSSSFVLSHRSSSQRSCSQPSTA
Chain of Estrogen receptor (Homo sapiens) (P03372 whole entry): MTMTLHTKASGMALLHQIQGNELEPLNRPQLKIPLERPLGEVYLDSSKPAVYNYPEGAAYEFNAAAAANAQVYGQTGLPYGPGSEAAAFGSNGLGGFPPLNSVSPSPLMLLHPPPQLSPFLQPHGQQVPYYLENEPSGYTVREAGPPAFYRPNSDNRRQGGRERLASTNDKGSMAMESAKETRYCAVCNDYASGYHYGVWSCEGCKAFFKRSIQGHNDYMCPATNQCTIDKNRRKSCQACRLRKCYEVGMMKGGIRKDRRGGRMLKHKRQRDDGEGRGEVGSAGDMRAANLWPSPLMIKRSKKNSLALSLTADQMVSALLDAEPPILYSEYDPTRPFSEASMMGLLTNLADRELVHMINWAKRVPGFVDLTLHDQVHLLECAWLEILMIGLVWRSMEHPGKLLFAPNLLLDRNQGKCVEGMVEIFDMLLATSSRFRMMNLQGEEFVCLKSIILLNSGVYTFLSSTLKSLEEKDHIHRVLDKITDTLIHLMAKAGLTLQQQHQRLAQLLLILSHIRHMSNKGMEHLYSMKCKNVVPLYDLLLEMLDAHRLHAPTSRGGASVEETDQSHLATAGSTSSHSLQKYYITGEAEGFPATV
Chain of Vasopressin V2 receptor (Homo sapiens) (P30518 whole entry): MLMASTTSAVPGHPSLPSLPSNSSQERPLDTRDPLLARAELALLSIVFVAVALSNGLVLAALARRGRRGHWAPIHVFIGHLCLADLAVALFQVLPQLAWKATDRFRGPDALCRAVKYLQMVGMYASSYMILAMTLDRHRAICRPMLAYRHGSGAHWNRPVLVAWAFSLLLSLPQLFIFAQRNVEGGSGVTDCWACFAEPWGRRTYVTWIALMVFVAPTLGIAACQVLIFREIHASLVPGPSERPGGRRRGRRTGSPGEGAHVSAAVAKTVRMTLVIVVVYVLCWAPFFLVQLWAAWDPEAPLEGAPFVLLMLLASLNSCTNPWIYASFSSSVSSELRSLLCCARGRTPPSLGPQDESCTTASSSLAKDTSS
Chain of Neprilysin (Homo sapiens) (P08473 whole entry): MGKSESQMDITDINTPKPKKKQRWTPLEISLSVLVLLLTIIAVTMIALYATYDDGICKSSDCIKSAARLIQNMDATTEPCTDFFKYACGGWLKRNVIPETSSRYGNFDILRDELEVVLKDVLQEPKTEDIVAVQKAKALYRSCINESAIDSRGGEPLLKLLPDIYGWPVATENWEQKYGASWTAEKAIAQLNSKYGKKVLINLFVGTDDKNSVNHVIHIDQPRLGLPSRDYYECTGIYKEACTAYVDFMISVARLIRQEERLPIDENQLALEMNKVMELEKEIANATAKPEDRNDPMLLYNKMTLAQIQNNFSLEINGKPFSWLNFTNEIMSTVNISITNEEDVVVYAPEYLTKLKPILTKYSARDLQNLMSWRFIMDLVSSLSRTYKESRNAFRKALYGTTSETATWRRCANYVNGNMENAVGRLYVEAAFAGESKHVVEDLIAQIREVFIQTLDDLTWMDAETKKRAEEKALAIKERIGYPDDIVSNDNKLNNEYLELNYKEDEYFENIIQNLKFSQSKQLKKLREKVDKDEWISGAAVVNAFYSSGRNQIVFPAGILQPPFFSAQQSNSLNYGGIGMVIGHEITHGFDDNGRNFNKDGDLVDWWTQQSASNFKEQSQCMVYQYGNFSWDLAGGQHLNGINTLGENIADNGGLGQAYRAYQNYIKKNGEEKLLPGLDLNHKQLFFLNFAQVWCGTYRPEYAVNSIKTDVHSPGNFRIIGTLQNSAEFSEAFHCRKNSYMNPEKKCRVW
Chain of Prostaglandin E2 receptor EP1 subtype (Homo sapiens) (P34995 whole entry): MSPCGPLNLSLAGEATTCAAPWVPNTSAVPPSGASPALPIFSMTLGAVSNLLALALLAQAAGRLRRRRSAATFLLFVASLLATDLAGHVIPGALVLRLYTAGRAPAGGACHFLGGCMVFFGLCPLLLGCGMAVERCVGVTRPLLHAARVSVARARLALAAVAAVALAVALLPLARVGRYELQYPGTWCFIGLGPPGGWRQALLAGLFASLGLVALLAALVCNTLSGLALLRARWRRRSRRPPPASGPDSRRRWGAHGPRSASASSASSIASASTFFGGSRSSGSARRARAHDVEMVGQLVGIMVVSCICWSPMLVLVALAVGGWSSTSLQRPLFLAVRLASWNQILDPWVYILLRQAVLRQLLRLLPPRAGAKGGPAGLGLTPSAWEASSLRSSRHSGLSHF

O=C(O)c1cc(-c2ccc(C3CCNCC3)cc2)c2ccc(-c3ccc(C(F)(F)F)cc3)cc2c1 [PPTN]
8.71 µM: IC50 [4]
active: inhibition ([3]; Compound concentration 10.0 uM) 70% | inhibition ([15]; Compound concentration 10.0 uM) 65% | inhibition ([19]; Compound concentration 10.0 uM) 101% | inhibition ([21]; Compound concentration 10.0 uM) 53%
5.3 µM: IC50 [15]
-10% (not active): inhibition at 60 min, 10 µM [2]
inactive: inhibition [1] 12% | inhibition ([3]; Compound concentration 0.01 uM) -3% | inhibition ([3]; Compound concentration 0.1 uM) 0% | inhibition ([3]; Compound concentration 1.0 uM) -1% | inhibition [6] 39% | inhibition [7] 1% | inhibition [8] 15% | inhibition [9] 1% | inhibition [10] 29% | inhibition [11] -9% | inhibition [12] 7% | inhibition [13] 0% | inhibition [14] 4% | inhibition ([15]; Compound concentration 0.01 uM) -5% | inhibition ([15]; Compound concentration 0.1 uM) 7% | inhibition ([15]; Compound concentration 1.0 uM) 17% | inhibition [16] 28% | inhibition [17] 12% | inhibition [18] -1% | inhibition ([19]; Compound concentration 0.01 uM) 9% | inhibition ([19]; Compound concentration 0.1 uM) 4% | inhibition ([19]; Compound concentration 1.0 uM) 7% | inhibition [20] 3% | inhibition ([21]; Compound concentration 0.01 uM) -2% | inhibition ([21]; Compound concentration 0.1 uM) -8% | inhibition ([21]; Compound concentration 1.0 uM) 0% | inhibition [22] -8%
22% (not active): inhibition at 60 min, 10 µM [5]
